Results on 13 molecules are retold here after patent US8119681B2, “2-[1-phenyl-5-hydroxy or methoxy-4alpha-methyl-hexahydrocyclopenta [ƒ]indazole-5-YL]ethyl phenyl derivatives as glucocorticoid receptor ligands” (Merck Sharp & Dohme Corp., priority 2006, dated 2012).

For assay [1], the target named is T1, human GR (Homo sapiens, UniProt P04150).
T1 sequence (P04150 1-777): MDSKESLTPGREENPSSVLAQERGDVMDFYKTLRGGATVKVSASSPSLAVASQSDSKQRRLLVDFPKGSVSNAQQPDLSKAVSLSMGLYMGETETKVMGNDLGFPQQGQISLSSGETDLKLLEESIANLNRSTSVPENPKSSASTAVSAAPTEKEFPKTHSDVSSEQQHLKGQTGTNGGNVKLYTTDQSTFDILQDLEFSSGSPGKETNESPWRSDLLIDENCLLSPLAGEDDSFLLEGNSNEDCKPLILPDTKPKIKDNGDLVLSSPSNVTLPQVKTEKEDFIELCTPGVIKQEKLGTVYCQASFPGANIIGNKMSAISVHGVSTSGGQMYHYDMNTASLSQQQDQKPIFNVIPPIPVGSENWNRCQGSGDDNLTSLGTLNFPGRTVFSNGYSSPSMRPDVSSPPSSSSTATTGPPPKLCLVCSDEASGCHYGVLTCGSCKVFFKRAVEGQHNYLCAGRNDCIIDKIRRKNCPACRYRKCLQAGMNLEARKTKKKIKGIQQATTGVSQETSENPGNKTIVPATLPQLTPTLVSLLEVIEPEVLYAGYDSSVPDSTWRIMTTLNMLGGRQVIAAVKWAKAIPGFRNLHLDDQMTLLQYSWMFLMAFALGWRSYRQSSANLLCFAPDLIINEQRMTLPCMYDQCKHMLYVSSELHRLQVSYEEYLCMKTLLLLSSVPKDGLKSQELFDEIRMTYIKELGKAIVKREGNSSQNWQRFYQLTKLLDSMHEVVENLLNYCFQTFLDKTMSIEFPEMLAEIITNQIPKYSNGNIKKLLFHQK
In words: Trans-Activation Modulation of Glucocorticoid Receptor (GRAMMER), MMTV-LUC reporter gene. Format: cell-based. Also on record: endogenous in cells. As to conditions: for Emax: A549, read-out: Transactivation A549 Cells GRAMMER Emax (%); for EC50: Table 1, A549 cells, IP = inflection point, read-out: Transactivation A549 Cells GRAMMER IP.

The target in assay [2] is T1, human GR. Kind of assay: Transrepression Assay (GITAR), TNFα-β-lactamase reporter gene in U937 cells. It is filed as cell-based. On the set-up: U937 cells contain an endogenous glucocorticoid receptor (GR); endogenous in cells; host or cells: U937 cells stably transfected with the TNF-α promoter/β-lactamase reporter only. As to conditions: for EC50: IP = inflection point, read-out: Transrepression U937 Cells GITAR IP; for GITAR > GRAMM % SEP: separation of GITAR Emax over GRAMMER Emax; for Emax: U-937. The procedure, abridged: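 Reporter readout used CCF2-AM loading for 70–90 min at room temperature after overnight (~18 h, 37 °C) PMA (5 ng/ml final) and LPS (100 ng/ml final) stimulation of compound-treated (30–45 min) TNFα-β-lactamase U937 cells expressing native GR. Activity was normalised to 100 nM dexamethasone repression.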

[3] abbreviates: 100 nM dexamethasone = 100% activity, read-out: maximal activity in the transrepression assay.
Where [4] appears, read: Table 1, U937 cells, activity repressed by 100 nM dexamethasone = 100%, read-out: Transrepression U937 Cells GITAR Emax (%).

Structures are written as SMILES.

With `CCS(=O)(=O)Nc1ccccc1CC[C@]1(O)CCC2=Cc3c(cnn3-c3ccc(F)cc3)C[C@@]21C` [Example 114, N-(2-{2-[(4αS,5R)-1-(4-fluorophenyl)-5-hydroxy-4α-methyl-1,4,4α,5,6,7-hexahydrocyclopenta[f]indazol-5-yl]ethyl}phenyl)ethanesulfonamide], the Emax in assay [1] was 43%; in assay [2] (setting [3]) it was 5 to 100%; in assay [2] (setting [4]) it was 78%. Also, the EC50 in assay [1] turned out to be 221 nM; in assay [2] (Table 1, U937 cells), 199 nM. In addition, the “GITAR > GRAMM % SEP” value in assay [2] (Table 1) is 34%.

`CN(C)S(=O)(=O)c1ccccc1CC[C@]1(O)CCC2=Cc3c(cnn3-c3ccc(F)cc3)C[C@@]21C` [Example 138, 2-{2-[(4αS,5R)-1-(4-fluorophenyl)-5-hydroxy-4α-methyl-1,4,4α,5,6,7-hexahydrocyclopenta[f]indazol-5-yl]ethyl}-N,N-dimethylbenzenesulfonamide]: the Emax is 55% in assay [1], 5 to 100% in assay [2] (setting [3]) and 72% in assay [2] (setting [4]). Also, the EC50 stood at 137 nM in assay [1] and 212 nM in assay [2] (Table 1, U937 cells). In addition, the “GITAR > GRAMM % SEP” value in assay [2] (Table 1) is listed as 17%.

For the molecule `CCS(=O)(=O)c1ccccc1CC[C@]1(O)CCC2=Cc3c(cnn3-c3ccc(F)cc3)C[C@@]21C` [Example 143, (4αS,5R)-5-{2-[2-(ethylsulfonyl)phenyl]ethyl}-1-(4-fluorophenyl)-4α-methyl-1,4,4α,5,6,7-hexahydrocyclopenta[f]indazol-5-ol], the Emax was 41% in assay [1], 5 to 100% in assay [2] (setting [3]) and 70% in assay [2] (setting [4]). In addition, the EC50 in assay [1] came to 118 nM; in assay [2] (Table 1, U937 cells), 194 nM. Further, the “GITAR > GRAMM % SEP” value in assay [2] (Table 1) is given as 29%.

With `C[C@]12Cc3cnn(-c4ccc(F)cc4)c3C=C1CC[C@@]2(O)CCc1ccccc1S(=O)(=O)C1CC1` [Example 144, (4αS,5R)-5-{2-[2-(cyclopropylsulfonyl)phenyl]ethyl}-1-(4-fluorophenyl)-4α-methyl-1,4,4α,5,6,7-hexahydrocyclopenta[f]indazol-5-ol], the Emax in assay [1] is 40%; in assay [2] (setting [3]), 5 to 100%; in assay [2] (setting [4]), 70%. The EC50 in assay [1] was 268 nM; in assay [2] (Table 1, U937 cells), 212 nM.

With `C[C@]12Cc3cnn(-c4ccc(F)cc4)c3C=C1CC[C@@]2(O)CCc1cccc(F)c1CO` [Example 148, (4αS,5R)-5-{2-[3-fluoro-2-(hydroxymethyl)phenyl]ethyl}-1-(4-fluorophenyl)-4α-methyl-1,4,4α,5,6,7-hexahydrocyclopenta[f]indazol-5-ol], the results for the Emax in assay [1], in assay [2] (setting [3]) and in assay [2] (setting [4]) were 57%, 5 to 100% and 75%, respectively. The EC50 in assay [1] was 43 nM; in assay [2] (Table 1, U937 cells), 46 nM. The “GITAR > GRAMM % SEP” value in assay [2] (Table 1) stood at 18%.

`C[C@]12Cc3cnn(-c4ccc(F)cc4)c3C=C1CC[C@@]2(O)CCc1cccc(F)c1[C@H](N)C(F)(F)F` [Example 151, (4αS,5R)-5-(2-{2-[(1S)-1-amino-2,2,2-trifluoroethyl]-3-fluorophenyl}ethyl)-1-(4-fluorophenyl)-4α-methyl-1,4,4α,5,6,7-hexahydrocyclopenta[f]indazol-5-ol]: the values for the Emax in assay [1], in assay [2] (setting [3]) and in assay [2] (setting [4]) were 43%, 5 to 100% and 76%, respectively. Further, the EC50 in assay [1] was 170 nM; in assay [2] (Table 1, U937 cells), 207 nM. Moreover, the “GITAR > GRAMM % SEP” value in assay [2] (Table 1) was found to be 33%.

For the molecule `C[C@]12Cc3cnn(-c4ccc(F)cc4)c3C=C1CC[C@@]2(O)CCc1cccc(F)c1[C@@H](N)C(F)(F)F` [Example 152, (4αS,5R)-5-(2-{2-[(1R)-1-amino-2,2,2-trifluoroethyl]-3-fluorophenyl}ethyl)-1-(4-fluorophenyl)-4α-methyl-1,4,4α,5,6,7-hexahydrocyclopenta[f]indazol-5-ol], the Emax was 44% in assay [1], 5 to 100% in assay [2] (setting [3]) and 77% in assay [2] (setting [4]). In addition, the EC50 in assay [1] was 223 nM; in assay [2] (Table 1, U937 cells), 247 nM. Moreover, the “GITAR > GRAMM % SEP” value in assay [2] (Table 1) is listed as 34%.

`C[C@]12Cc3cnn(-c4ccc(F)cc4)c3C=C1CC[C@@]2(O)CCc1ccccc1C(=O)N1CC(=O)C1` [Example 156, 1-(2-{2-[(4αS,5R)-1-(4-fluorophenyl)-5-hydroxy-4α-methyl-1,4,4α,5,6,7-hexahydrocyclopenta[f]indazol-5-yl]ethyl}benzoyl)azetidin-3-one]: the Emax is 47% in assay [1], 5 to 100% in assay [2] (setting [3]) and 69% in assay [2] (setting [4]). In addition, the EC50 in assay [1] was determined as 278 nM; in assay [2] (Table 1, U937 cells), 189 nM. For the same molecule, the “GITAR > GRAMM % SEP” value in assay [2] (Table 1) stood at 22%.

Consider `CC(=O)Cc1ccccc1CC[C@]1(O)CCC2=Cc3c(cnn3-c3ccc(F)cc3)C[C@@]21C` [Example 157, 1-(2-{2-[(4αS,5R)-1-(4-fluorophenyl)-5-hydroxy-4α-methyl-1,4,4α,5,6,7-hexahydrocyclopenta[f]indazol-5-yl]ethyl}phenyl)acetone], for which the values for the Emax in assay [1], in assay [2] (setting [3]) and in assay [2] (setting [4]) were 45%, 5 to 100% and 63%, respectively. Besides, the EC50 was determined as 240 nM in assay [1] and 194 nM in assay [2] (Table 1, U937 cells). In assay [2] (Table 1), the “GITAR > GRAMM % SEP” value worked out at 18%.

For `C[C@]12Cc3cnn(-c4ccc(F)cc4)c3C=C1CC[C@@]2(O)CCc1ccc(F)cc1C(N)=O` [Example 159, 5-fluoro-2-{2-[(4αS,5R)-1-(4-fluorophenyl)-5-hydroxy-4α-methyl-1,4,4α,5,6,7-hexahydrocyclopenta[f]indazol-5-yl]ethyl}benzamide], the figures for the Emax in assay [1], in assay [2] (setting [3]) and in assay [2] (setting [4]) were 37%, 5 to 100% and 73%, respectively. In addition, the EC50 was 197 nM in assay [1] and 125 nM in assay [2] (Table 1, U937 cells). Besides, in assay [2] (Table 1), the “GITAR > GRAMM % SEP” value worked out at 36%.

In the case of `C[C@]12Cc3cnn(-c4ccc(F)cc4)c3C=C1CC[C@@]2(O)CCc1ccc(F)cc1C#N` [Example 163, 5-fluoro-2-{2-[(4αS,5R)-1-(4-fluorophenyl)-5-hydroxy-4α-methyl-1,4,4α,5,6,7-hexahydrocyclopenta[f]indazol-5-yl]ethyl}benzonitrile], the Emax in assay [1] was 48%; in assay [2] (setting [3]), 5 to 100%; in assay [2] (setting [4]) it was 70%. For the same molecule, the EC50 in assay [1] was determined as 103 nM; in assay [2] (Table 1, U937 cells) it was 299 nM. For the same molecule, in assay [2] (Table 1), the “GITAR > GRAMM % SEP” value is 23%.

Take `C[C@]12Cc3cnn(-c4ccc(F)c(F)c4)c3C=C1CC[C@@]2(O)CCc1cccc(F)c1C(N)=O` [Example 168, 2-{2-[(4α,5R)-1-(3,4-difluorophenyl)-5-hydroxy-4α-methyl-1,4,4α,5,6,7-hexahydrocyclopenta[f]indazol-5-yl]ethyl}-6-fluorobenzamide]: the Emax in assay [1] was 58%; in assay [2] (setting [3]), 5 to 100%; in assay [2] (setting [4]) it was 77%. Also, the EC50 amounted to 53 nM in assay [1] and 52 nM in assay [2] (Table 1, U937 cells). In addition, the “GITAR > GRAMM % SEP” value in assay [2] (Table 1) is given as 19%.

As to `C[C@]12Cc3cnn(-c4ccc(F)cc4)c3C=C1CC[C@@]2(O)CCc1ccc(Cl)cc1C(N)=O` [Example 170, 5-chloro-2-{2-[(4αS,5R)-1-(4-fluorophenyl)-5-hydroxy-4α-methyl-1,4,4α,5,6,7-hexahydrocyclopenta[f]indazol-5-yl]ethyl}benzamide], the Emax in assay [1] is 24%; in assay [2] (setting [3]), 5 to 100%; in assay [2] (setting [4]) it was 66%. The EC50 in assay [1] is 234 nM; in assay [2] (Table 1, U937 cells), 223 nM. In addition, the “GITAR > GRAMM % SEP” value in assay [2] (Table 1) is listed as 42%.
